The assay deals with T1, hTRPM3_1325 V990M (Homo sapiens, UniProt Q9HCF6, V1015M).
T1 construct: expressed in transfected cells; host or cells: Xenopus laevis oocytes (cRNA injection)
T1 sequence (Q9HCF6 1-1325 isoform Q9HCF6-10 V990M): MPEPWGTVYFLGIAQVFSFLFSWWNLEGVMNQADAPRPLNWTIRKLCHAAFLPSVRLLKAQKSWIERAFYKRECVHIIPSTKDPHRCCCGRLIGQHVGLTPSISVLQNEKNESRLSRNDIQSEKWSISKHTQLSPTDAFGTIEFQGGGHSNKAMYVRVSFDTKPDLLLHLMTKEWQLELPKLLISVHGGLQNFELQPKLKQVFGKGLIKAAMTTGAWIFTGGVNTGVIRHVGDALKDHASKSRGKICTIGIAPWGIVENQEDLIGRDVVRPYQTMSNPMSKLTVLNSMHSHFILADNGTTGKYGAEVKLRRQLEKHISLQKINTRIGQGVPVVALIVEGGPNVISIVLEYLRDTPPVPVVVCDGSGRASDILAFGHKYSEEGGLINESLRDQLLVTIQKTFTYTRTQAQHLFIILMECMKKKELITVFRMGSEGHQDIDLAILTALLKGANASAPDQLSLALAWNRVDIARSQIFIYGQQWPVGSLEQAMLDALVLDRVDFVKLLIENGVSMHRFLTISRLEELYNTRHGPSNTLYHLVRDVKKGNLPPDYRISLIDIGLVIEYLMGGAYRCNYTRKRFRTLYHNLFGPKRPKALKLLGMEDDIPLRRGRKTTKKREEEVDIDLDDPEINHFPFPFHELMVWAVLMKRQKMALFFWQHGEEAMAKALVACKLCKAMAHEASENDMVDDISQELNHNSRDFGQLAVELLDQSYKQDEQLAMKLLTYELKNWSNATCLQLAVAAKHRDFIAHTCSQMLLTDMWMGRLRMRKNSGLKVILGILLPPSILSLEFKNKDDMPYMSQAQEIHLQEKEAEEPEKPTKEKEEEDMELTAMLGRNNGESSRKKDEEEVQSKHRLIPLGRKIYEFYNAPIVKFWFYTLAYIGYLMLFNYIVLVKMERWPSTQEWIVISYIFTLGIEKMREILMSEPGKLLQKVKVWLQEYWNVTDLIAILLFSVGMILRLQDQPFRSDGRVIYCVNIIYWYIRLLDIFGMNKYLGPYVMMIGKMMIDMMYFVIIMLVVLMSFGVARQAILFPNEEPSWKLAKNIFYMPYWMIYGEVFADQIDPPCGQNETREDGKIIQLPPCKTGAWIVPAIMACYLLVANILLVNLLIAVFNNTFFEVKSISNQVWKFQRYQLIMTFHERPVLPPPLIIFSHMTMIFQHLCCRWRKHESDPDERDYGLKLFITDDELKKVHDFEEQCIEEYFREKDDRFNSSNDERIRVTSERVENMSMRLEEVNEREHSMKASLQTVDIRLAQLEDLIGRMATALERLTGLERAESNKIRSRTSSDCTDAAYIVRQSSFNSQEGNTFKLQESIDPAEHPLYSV
Put plainly: Two electrode voltage clamp in Xenopus oocytes, V990M mutant. Format: cell-based. As to conditions: V990M compared with P1090Q, 50 μM, 100 and −100 mV, room temperature (20–22°C). The method, then: Xenopus laevis oocytes were prepared as described earlier ([Badheka et al., 2015]). All animal procedures were approved by the Institutional Animal Care and Use Committee at Rutgers New Jersey Medical School. In brief, frogs were anesthetized in 0.25% ethyl 3-aminobenzoate methanesulfonate solution (MS222; Sigma-Aldrich); bags of ovaries were removed surgically from the anesthetized frogs. Individual oocytes were obtained by overnight digestion at 16°C in 0.2–0.3 mg/ml type 1A collagenase (Sigma-Aldrich), dissolved in a solution containing 82.5 mM NaCl, 2 mM KCl, 1 mM MgCl2, and […] HEPES, pH 7.4 (OR2 solution). The next day the collagenase containing solution was discarded and the oocytes were washed multiple times with OR2 solution. […]
Two electrode voltage clamp experiments were performed as described ([Badheka et al., 2015]). In brief, oocytes were placed in extracellular solution (97 mM NaCl, 2 mM KCl, 1 mM MgCl2, and […] HEPES, pH 7.4), and currents were recorded with thin-wall inner filament– containing glass pipettes (World Precision Instruments) filled with 3 M KCl in 1% agarose. Currents were measured with a ramp protocol from −100 to 100 mV once every 0.5 s with a GeneClamp 500B amplifier and analyzed with the pClamp 9.0 software (Molecular Devices). […]
For orientation: In two-electrode clamp one electrode senses voltage and the other passes current.

Molecules are shown by their SMILES.

On to `CCC1(c2ccccc2)C(=O)NCNC1=O` [primidone], for which the “Inhibition of basal current” value is “significantly larger inhibition”.

The values above are taken from PMC7255801, “Disease-associated mutations in the human TRPM3 render the channel overactive via two distinct mechanisms” (eLife, 2020).
